{"source": "patent US6399380B1", "about": "“Native-state histoculturing skin extracellular support” (Anti-Cancer, Inc., priority 1991, dated 2002)", "key": {"histocultured mouse skin": {"system": "histocultured mouse skin", "protocol": "Samples of skin having an external surface area of about 10 mm^2 and a thickness of about one to two mm were excised from an athymic nude mouse and placed on a GELFOAM™ matrix immersed in Eagle's MEM containing about 0.2 mg/ml of gentamycin and about 10% (v/v) fetal bovine serum. Prior to use the matrix was soaked in the medium for four hours at 37° C. to equilibrate the matrix in the medium.\nThe skin samples were maintained on the matrix in the medium at a temperature of about 37° C. in a gassed incubator under a mixture of 95% air and 5% CO2. Viability was assessed as the uptakes of an indicator specific for viable cells (BCECF-AM) and an indicator specific for dead cells (propidium iodide, PI), or as the uptake of [^3H]-thymidine.\nThe fluorescent dye indicators BCECF-AM and PI (Molecular Probes, Eugene, Oreg.) were added directly to the medium at a final concentration of 5 micromolar. Incorporation of the dyes was microscopically evaluated about 30 min following addition of the dyes to the medium by optical scanning using an MRC-600 Confocal Imaging System (Bio-Rad, Richmond, Calif.) mounted on a Nikon Epithet equipped with a 10× Plane objective. Samples were observed using an optical section of about 4 microns.\nSkin samples from athymic nude mice were cultured according to the method of Example 1. Viability was assessed before and after the addition of putative toxins using BCECF-AM and [^3H]-thymidine as indicators specific for viable cells and PI as an indicator specific for dead cells. The uptake of these indicators was determined according to the methods of Example 1.\nAn initial assessment of viability was made 2 days after initiation of the skin culture using BCECF-AM and PI. Immediately following this initial assessment, various concentrations of the toxins ethanol, doxorubicin or sodium hypochlorite were contacted with the skin samples. The final concentrations of the toxins varied from about 0.5% to about 70% (v/v) for ethanol, from about 29 to about 725 mgs/ml for doxorubicin and from about 0.6% to about 60.0% (v/v) for sodium hypochlorite.\nThe skin samples were contacted with ethanol, doxorubicin and sodium hypochlorite for about 5 min., for about 24 hours and for about 2 hours respectively. Following these contact times, the toxin-containing medium was replaced with fresh, non-toxin-containing medium and the skin samples reassessed for viability using BCECF-AM and PI Viability was assessed in the same region of the skin sample before and after contact with the toxin.\nIn this study, toxicity was expressed as a percent of killed cells. The fraction of killed cells (PI-positive cells) with respect to total cells (PI-positive (red) plus BCECF-AM-positive (green) cells) in treated cultures is measured with confocal fluorescence scanning microscopy and is compared to untreated controls to determine cytotoxicity. The percent of killed cells is expressed as the number of red cells after treatment minus the number of red cells before treatment, divided by the total number of cells (green cells after treatment plus red cells after treatment).\nThe effects of doxorubicin and sodium hypochlorite on skin toxicity were determined in an identical manner to that described above for ethanol."}, "[1]": {"system": "dermal, epidermal and follicle cells of histocultured mouse skin", "test": "Skin toxicity assay: [3H]-thymidine uptake (percent cell proliferation), autoradiography", "format": "cell-based", "conditions": "FIG. 6", "experimental": "[^3H]-Thymidine was added directly to the medium at a final concentration of 4 μCI/ml. Skin samples were maintained in the thymidine-containing medium for 3 days. After the 3 days, the skin cultures were washed with phosphate-buffered saline, pH 7.0, placed in histology capsules and fixed in 10% (v/v) formalin. The fixed skin cultures were then dehydrated, embedded in paraffin, sectioned and placed on slides by standard methods well known to those of skill in the histology art. The slides were deparaffinized, coated with Kodak NTB-2 emulsion, exposed for 5 days and developed. […]\nIn addition, skin samples contacted with doxorubicin were assessed for viability using the uptake of [^3H]-thymidine measured after 24 hr of toxin contact.\nIn this study, toxicity was expressed as percent cell proliferation. Percent cell proliferation was calculated as the ratio of, (1) percentage of cells labeled with [^3H]-thymidine to total cells in doxorubicin treated samples compared to (2) the percentage of [^3H]-thymidine labeled cells to total cells in control, untreated skin samples."}, "dorsal skin of mice": {"system": "dorsal skin of mice", "conditions": "mouse, in vivo", "protocol": "The in vivo assessment of toxicity was determined using a standard skin irritation test as set forth below.\nSmall pieces of gauze paper (about 1.5 cm^2 size), which have been soaked in different concentrations of sodium hypochlorite, were tightly put on 3 different sites on the dorsal surface of the mice. Skin sites were scored on a 1 to 4 scale for […] and edema ½ hour and 1 hour after removal of the sodium hypochlorite. The primary irritation index (PII) for each concentration of sodium hypochlorite was derived from the following formula: […]"}}, "data": [{"smiles": "COc1cccc2c1C(=O)c1c(O)c3c(c(O)c1C2=O)C[C@@](O)(C(=O)CO)C[C@@H]3O[C@H]1C[C@H](N)[C@H](O)[C@H](C)O1", "note": "[doxorubicin]", "values": [{"measurement": "toxicity (percent of killed cells) as a function of concentration", "setting": "histocultured mouse skin; doxorubicin about 29 to about 725 mgs/ml, 24 hours, FIG. 5", "result": "relatively proportional to the concentration of doxorubicin"}, {"measurement": "percent cell proliferation ([3H]-thymidine labeled cells relative to control)", "setting": "[1]; 24 hour exposure to doxorubicin", "result": "dose-dependent decrease in cell proliferation"}, {"measurement": "cell type in which toxicity was most pronounced", "setting": "[1]; 24 hour exposure, dermal, epidermal and follicle cells compared", "result": "most pronounced in hair follicle cells"}]}, {"smiles": "CCO", "note": "[ethanol]", "values": [{"measurement": "viability of skin sample after vs before treatment (live/dead staining)", "setting": "histocultured mouse skin; 0.5% (v/v) or 5.0% ethanol, about 5 min, skin histocultured 2 days, FIG. 3", "result": "a large number of cells died"}, {"measurement": "relative toxicity (loss in viability)", "setting": "histocultured mouse skin; 5.0% vs 0.5% ethanol, about 5 min, FIG. 3", "result": "more toxic (a greater loss in viability) than was 0.5% ethanol"}, {"measurement": "loss of viability", "setting": "histocultured mouse skin; 30%, 50% and 70% ethanol, data not shown", "result": "increasing losses of viability above the extent of losses observed using 5% ethanol"}, {"measurement": "percent of killed cells (toxicity) as a function of concentration", "setting": "histocultured mouse skin; ethanol about 0.5% to about 70% (v/v), 5 minutes, skin histocultured two days, FIG. 4", "result": "increases as the concentration of ethanol increases"}]}, {"smiles": "OCl", "note": "[sodium hypochlorite]", "values": [{"measurement": "threshold of toxicity (percent of killed cells)", "setting": "histocultured mouse skin; athymic nude, mouse", "result": "about 0.6%"}, {"measurement": "threshold of toxicity (primary irritation index)", "setting": "dorsal skin of mice", "result": "about 0.6%"}]}]}
